Measured values: patent US20080031955A1, “Product Comprising a Beta-Lactam Antibiotic” (priority 2004, published 2008)

Legend:
Type in all cases: physicochemical
[1] = Color C400 measured at 400 nm (Ph. Eur.); conditions: color measured at a wavelength of 400 nm
Source text: In a preferred embodiment, the product according to the invention has a C400≦0.20, wherein C400 is the color measured at a wavelength of 400 nm (Ph.Eur.). Preferably, the product has a C400≦0.15, preferably a C400≦0.10.

[2] = Water content (Karl Fisher) of the dried product; conditions: after drying
Procedure: The wet cake was fluidised with air at ambient temperature during 15 to 30 minutes, after which it was fluidised with warm air (30-40° C.) during 45 to 75 minutes (air flow 1800 m^3/hr), until the water content was 5.2 wt. % (Karl Fisher).
(product temperature 40° C.). The final pressure was 20 mbar. […] The water content was 5.2 wt. % (Karl Fisher).

[3] = Acetone content of the dried product by gas chromatography
Procedure: The acetone content or concentration of organic solvent may be determined in any suitable manner, e.g. by gas chromatography.
The acetone content of the dried product was analysed using a Hewlett-Packard Gas Chromatograph, model 5890. As a sample solution was used a solution obtained by dissolving 0.500 g of product in 10.0 ml of water (with the aid of some drops of NaOH 1 N). As a standard (reference) solution was used a solution obtained by dissolving 0.5 g of acetone standard in 50.0 ml of water, from which 1.0 ml was taken and diluted with 50.0 ml water.

SMILES | C400 (Ph. Eur.) [1] | water content (Karl Fisher) [2] | Acetone content ([3]; dried cephalexin product) | Acetone content ([3]; dried product, fluid bed dryer)
CC1=C(C(=O)O)N2C(=O)[C@@H](NC(=O)[C@H](N)c3ccccc3)[C@H]2SC1 [Comparative experiment A, cephalexin] | 0.025 | 5.2 wt. % | 500 mg/kg | 500 mg of acetone per kg of cephalexin
CC1=C(C(=O)O)N2C(=O)[C@@H](NC(=O)[C@H](N)c3ccccc3)[C@H]2SC1.O [Example I, cephalexin] | 0.026 | 5.2 wt. % | 10 mg/kg | –
